Results: PubChem BioAssay AID330 (DTP/NCI, 2004)
Inconclusive results and toxic doses are left out. Rule for the calls: active = survival T/C of 150% or more; inactive = T/C below 125% in these data.

System: P388 leukemia ip, CD2F1 mice, survival T/C
Assay: NCI In Vivo Anticancer Drug Screen. Data for tumor model P388 Leukemia (intraperitoneal) in CD2F1 (CDF1) mice
Conditions: endpoint: median survival time, higher = longer survival
Outline: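 Mice carrying the transplanted tumor received test compound or vehicle. Survival was recorded in each group, and the value is the treated-group measurement divided by that of the vehicle-treated control group.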

[1] = dose: 60.0 mg/kg/injection, schedule: Q01DX005 (ip), vehicle: saline with Tween-80
[2] = dose: 120.0 mg/kg/injection, schedule: Q01DX005 (ip), vehicle: saline with Tween-80
[3] = dose: 240.0 mg/kg/injection, schedule: Q01DX005 (ip), vehicle: saline with Tween-80
[4] = dose: 50.0 mg/kg/injection, schedule: Q01DX005 (ip), vehicle: Klucel (hydroxypropylcellulose) (HPC)
[5] = dose: 12.5 mg/kg/injection, schedule: Q01DX009 (ip), vehicle: other
[6] = dose: 25.0 mg/kg/injection, schedule: Q01DX009 (ip), vehicle: other
[7] = dose: 50.0 mg/kg/injection, schedule: Q01DX009 (ip), vehicle: other
[8] = dose: 100.0 mg/kg/injection, schedule: Q01DX009 (ip), vehicle: other
[9] = dose: 200.0 mg/kg/injection, schedule: Q01DX009 (ip), vehicle: other
[10] = dose: 50.0 mg/kg/injection, schedule: Q01DX005 (ip), vehicle: saline with Tween-80
[11] = dose: 100.0 mg/kg/injection, schedule: Q01DX005 (ip), vehicle: saline with Tween-80
[12] = dose: 200.0 mg/kg/injection, schedule: Q01DX005 (ip), vehicle: saline with Tween-80
[13] = dose: 50.0 mg/kg/injection, schedule: Q01DX009 (ip), vehicle: saline with Tween-80
[14] = dose: 100.0 mg/kg/injection, schedule: Q01DX009 (ip), vehicle: saline with Tween-80
[15] = dose: 200.0 mg/kg/injection, schedule: Q01DX009 (ip), vehicle: saline with Tween-80
[16] = dose: 100.0 mg/kg/injection, schedule: Q01DX005 (ip), vehicle: Klucel (hydroxypropylcellulose) (HPC)
[17] = dose: 200.0 mg/kg/injection, schedule: Q01DX005 (ip), vehicle: Klucel (hydroxypropylcellulose) (HPC)

Measured: T/C

COc1ccc2c(c1C)CN1CCc3cc4c(cc3C1=C2)OCO4
inactive: [1] 99 % of control | [2] 117 % of control | [3] 100 % of control

C[C-]=O.C[C-]=O.[C-]#[O+].[C-]#[O+].[C-]#[O+].[C-]#[O+].[Re]
inactive: dose: 12.5 mg/kg/injection, schedule: Q01DX005 (ip), vehicle: Klucel (hydroxypropylcellulose) (HPC) 101 % of control | dose: 25.0 mg/kg/injection, schedule: Q01DX005 (ip), vehicle: Klucel (hydroxypropylcellulose) (HPC) 96 % of control | [4] 93 % of control

CN1C(NN)=NS(=O)(=O)c2ccccc21
inactive: [1] 106 % of control | [2] 103 % of control | [3] 106 % of control

COC(=O)Nc1cnc(C(=O)O)c(C)c1-c1ccc(OC)c(OC)c1OCc1ccccc1
inactive: [5] 97 % of control | [6] 100 % of control | [7] 102 % of control | [8] 101 % of control | [9] 103 % of control

N#CC(C(=O)CCC(=O)C(C#N)c1c(Cl)cccc1Cl)c1c(Cl)cccc1Cl (stereo unspecified)
inactive: [10] 100 % of control | [11] 98 % of control | [12] 98 % of control

O=c1sc2ccccc2n2cccc12
inactive: [1] 92 % of control | [2] 94 % of control | [3] 92 % of control

OC1(c2cccnc2)C=CCC1 (stereo unspecified)
inactive: [13] 100 % of control | [14] 102 % of control | [15] 100 % of control

CCOC(=O)Nc1cc(Cl)c2nnn(C(=O)OCC)c2n1
inactive: dose: 6.25 mg/kg/injection, schedule: Q01DX009 (ip), vehicle: other 105 % of control | dose: 11.0 mg/kg/injection, schedule: Q01DX009 (ip), vehicle: other 103 % of control | [5] 115 % of control | dose: 16.5 mg/kg/injection, schedule: Q01DX009 (ip), vehicle: other 106 % of control | [6] 106 % of control | dose: 37.5 mg/kg/injection, schedule: Q01DX009 (ip), vehicle: other 112 % of control | [7] 122 % of control | [8] 115 % of control

O=c1/c(=C/c2ccc(/C=c3\sc4nc5ccccc5n4c3=O)cc2)sc2nc3ccccc3n12
inactive: [10] 92 % of control | [11] 90 % of control | [12] 95 % of control

CC1=CC(O)CC(C)(C)C1 (stereo unspecified)
inactive: dose: 50.0 mg/kg/injection, schedule: Q01DX009 (ip), vehicle: saline 106 % of control | dose: 100.0 mg/kg/injection, schedule: Q01DX009 (ip), vehicle: saline 100 % of control | dose: 200.0 mg/kg/injection, schedule: Q01DX009 (ip), vehicle: saline 99 % of control

c1ccc(-n2ncc3ccc4cccn4c32)cc1
inactive: [1] 108 % of control | [2] 111 % of control | [3] 120 % of control

CC(Cl)CN(Cc1cc(O)c(CN(CC(C)Cl)CC(C)Cl)cc1O)CC(C)Cl (stereo unspecified)
inactive: dose: 200.0 mg/kg/injection, schedule: Q04DX003 (ip), vehicle: Klucel (hydroxypropylcellulose) (HPC) 118 % of control

O=C1CCC(Cc2ccc(Cl)cc2Cl)C(=O)N1 (stereo unspecified)
inactive: [1] 96 % of control | [2] 94 % of control | [3] 87 % of control

CCc1[nH]nc(-c2n[nH]c(CC)c2C)c1C
inactive: dose: 60.0 mg/kg/injection, schedule: Q01DX005 (ip), vehicle: saline 100 % of control | dose: 120.0 mg/kg/injection, schedule: Q01DX005 (ip), vehicle: saline 102 % of control | dose: 240.0 mg/kg/injection, schedule: Q01DX005 (ip), vehicle: saline 98 % of control

C[C@@H]1C[C@@H]2c3cccc4[nH]cc(c34)C[C@H]2N(C)C1
inactive: dose: 3.12 mg/kg/injection, schedule: Q01DX005 (ip), vehicle: saline with Tween-80 98 % of control | dose: 6.25 mg/kg/injection, schedule: Q01DX005 (ip), vehicle: saline with Tween-80 98 % of control | dose: 12.5 mg/kg/injection, schedule: Q01DX005 (ip), vehicle: saline with Tween-80 100 % of control

O=c1cccccc1O.O=c1cccccc1O.O=c1cccccc1O.[Ru]
inactive: [4] 96 % of control | [16] 100 % of control | [17] 116 % of control

CC1=NCC(=O)O1
inactive: [4] 98 % of control | [16] 98 % of control | [17] 102 % of control

CC(=O)Oc1c2ccccc2cc2ccccc12
inactive: [10] 112 % of control | [11] 96 % of control | [12] 89 % of control

CSC(=S)N/N=C\c1c(CO)cnc(C)c1O
inactive: dose: 100.0 mg/kg/injection, schedule: Q04DX002 (ip), vehicle: saline with Tween-80 116 % of control | dose: 400.0 mg/kg/injection, schedule: Q04DX002 (ip), vehicle: saline with Tween-80 113 % of control

CCN(CC)c1ccc(/C=N\NC(=O)C(=O)N/N=C\c2ccc(N(CC)CC)cc2)cc1
inactive: [10] 87 % of control | [11] 87 % of control | [12] 89 % of control

CC(O)CNC1=C(Cl)C(=O)c2ccccc2C1=O (stereo unspecified)
inactive: dose: 12.5 mg/kg/injection, schedule: Q01DX009 (ip), vehicle: distilled water + Tween-80 100 % of control | dose: 25.0 mg/kg/injection, schedule: Q01DX009 (ip), vehicle: distilled water + Tween-80 103 % of control | dose: 50.0 mg/kg/injection, schedule: Q01DX009 (ip), vehicle: distilled water + Tween-80 100 % of control | dose: 100.0 mg/kg/injection, schedule: Q01DX009 (ip), vehicle: distilled water + Tween-80 98 % of control | dose: 200.0 mg/kg/injection, schedule: Q01DX009 (ip), vehicle: distilled water + Tween-80 92 % of control

CN(C)c1ccc(/C=N/NC(=O)CC2CCCCC2)cc1
inactive: [1] 100 % of control | [2] 108 % of control | [3] 102 % of control

Cc1cc(C2(c3cc(C)c(O)c(CN(CC(=O)O)CC(=O)O)c3)OC(=O)c3ccccc32)cc(CN(CC(=O)O)CC(=O)O)c1O
inactive: [13] 100 % of control | [14] 100 % of control | [15] 97 % of control

CSc1nc2ccc(N)cc2s1
inactive: dose: 100.0 mg/kg/injection, schedule: Q04DX003 (ip), vehicle: saline with Tween-80 97 % of control | dose: 200.0 mg/kg/injection, schedule: Q04DX003 (ip), vehicle: saline with Tween-80 99 % of control | dose: 400.0 mg/kg/injection, schedule: Q04DX003 (ip), vehicle: saline with Tween-80 93 % of control

Cc1ccc2c(c1)sc1nncn12
inactive: dose: 50.0 mg/kg/injection, schedule: Q01DX009 (ip), vehicle: Klucel (hydroxypropylcellulose) (HPC) 94 % of control | dose: 100.0 mg/kg/injection, schedule: Q01DX009 (ip), vehicle: Klucel (hydroxypropylcellulose) (HPC) 105 % of control

CC(C)C(NC(=O)OCC1c2ccccc2-c2ccccc21)C(=O)O (stereo unspecified)
inactive: [4] 104 % of control | [16] 99 % of control | [17] 98 % of control

C=C1CCC2C(OC(=O)C2(O)COC(C)=O)C2C(=C)C(OC(C)=O)CC12 (stereo unspecified)
inactive: dose: 9.38 mg/kg/injection, schedule: Q01DX005 (ip), vehicle: Klucel (hydroxypropylcellulose) (HPC) 106 % of control | dose: 18.75 mg/kg/injection, schedule: Q01DX005 (ip), vehicle: Klucel (hydroxypropylcellulose) (HPC) 100 % of control | dose: 37.5 mg/kg/injection, schedule: Q01DX005 (ip), vehicle: Klucel (hydroxypropylcellulose) (HPC) 98 % of control | dose: 75.0 mg/kg/injection, schedule: Q01DX005 (ip), vehicle: Klucel (hydroxypropylcellulose) (HPC) 100 % of control | dose: 150.0 mg/kg/injection, schedule: Q01DX005 (ip), vehicle: Klucel (hydroxypropylcellulose) (HPC) 99 % of control

C/C(=C\c1ccc(OCC(=O)O)c2ccccc12)[N+](=O)[O-]
inactive: dose: 25.0 mg/kg/injection, schedule: Q01DX001 (ip), vehicle: saline with Tween-80 110 % of control | dose: 50.0 mg/kg/injection, schedule: Q01DX001 (ip), vehicle: saline with Tween-80 111 % of control | dose: 100.0 mg/kg/injection, schedule: Q01DX001 (ip), vehicle: saline with Tween-80 101 % of control

COC(=O)CCCCc1ccc(CCCCC(=O)OC)c2ccccc12
inactive: [7] 103 % of control | [8] 100 % of control | [9] 97 % of control

C[n+]1c2ccccc2c(N)c2ccccc21
inactive: dose: 30.0 mg/kg/injection, schedule: Q04DX002 (ip), vehicle: saline with Tween-80 117 % of control

CC(=O)N1C=CC(C2C=CN(C(C)=O)C=C2)C=C1
inactive: dose: 10.0 mg/kg/injection, schedule: Q01DX009 (ip), vehicle: saline with Tween-80 109 % of control | dose: 20.0 mg/kg/injection, schedule: Q01DX009 (ip), vehicle: saline with Tween-80 96 % of control | dose: 40.0 mg/kg/injection, schedule: Q01DX009 (ip), vehicle: saline with Tween-80 100 % of control

CSC(SC)=C1CCCC(=C(SC)SC)C1=O
inactive: [10] 100 % of control | [11] 104 % of control | [12] 99 % of control
